Assay results: patent US7973055B2, “Crystalline forms of a biphenyl compound” (Theravance, Inc., priority 2006, dated 2011)
Counter-ions that a name gives are not always drawn.

Key:
[1] = Dynamic moisture sorption (DMS) assessment; format: physicochemical; details: for weight gain when exposed to up to 90% relative humidity / level of hygroscopicity: DMS; for weight gain when exposed to up to 90% relative humidity: up to 90% RH; for deliquescence: exposed to up to 90% relative humidity
Description: A dynamic moisture sorption (DMS) assessment (also known as a moisture sorption-desorption profile) was performed for samples of a crystalline hemiedisylate (prepared as described in Example 2) and a heminapadisylate (prepared as described in Example 5) salt using a VTI atmospheric microbalance, SGA-100 system (VTI Corp., Hialeah, Fla. 33016). A sample size of approximately 10 mg was used and the humidity was set at the ambient value at the start of the analysis. A typical DMS analysis consisted of three scans: ambient to 2% relative humidity (RH), 2% RH to 90% RH, 90% RH to 5% RH at a scan rate of 5% RH/step. The mass was measured every two minutes and the RH was changed stepwise to the next value (+/−5% RH) when the mass of the sample was stable to within 0.02% for 5 consecutive points.

[2] = 5° C./min
Description: Differential scanning calorimetry (DSC) was performed using a TA Instruments Model Q-10 module with a Thermal Analyst controller. Data were collected and analyzed using TA Instruments Thermal Solutions software. A sample of about 1 mg was accurately weighed into an aluminum pan with lid. The sample was evaluated using a linear heating ramp of 5° C./min from ambient temperature to approximately 300° C. The DSC cell was purged with dry nitrogen during use.

[3] = 0.2 mg/mL freebase equivalents in 10 mM citrate buffered normal saline, pH 4.5; one month at 40° C./75% RH
Description: A solution was prepared with 0.2 mg/mL freebase equivalents (using a crystalline heminapadisylate salt prepared as described in Example 5) in 10 mM citrate buffered normal saline, pH 4.5. Less than 0.5% degradation was observed after storage for one month at 40° C./75% RH.

[4] = Solid state stability assessment (HPLC); details: about 1 month at 40° C. and 75% RH
Description: These stock solutions were diluted to 1 mg/mL in 10% ACN for injection onto the HPLC.

CN(CCN1CCC(OC(=O)Nc2ccccc2-c2ccccc2)CC1)C(=O)c1cccc(C(=O)NCCNCc2ccc(O)cc2)c1 [crystalline dipropionate salt]
weight gain when exposed to up to 90% relative humidity [1]: less than 11%

CN(CCN1CCC(OC(=O)Nc2ccccc2-c2ccccc2)CC1)C(=O)c1cccc(C(=O)NCCNCc2ccc(O)cc2)c1 [crystalline monooxalate salt]
weight gain when exposed to up to 90% relative humidity [1]: less than 14%

CN(CCN1CCC(OC(=O)Nc2ccccc2-c2ccccc2)CC1)C(=O)c1cccc(C(=O)NCCNCc2ccc(O)cc2)c1 [crystalline diacetate salt]
weight gain when exposed to up to 90% relative humidity [1]: less than 18%

CN(CCN1CCC(OC(=O)Nc2ccccc2-c2ccccc2)CC1)C(=O)c1cccc(C(=O)NCCNCc2ccc(O)cc2)c1 [crystalline freebase (Form I), Crystalline Freebase Biphenyl-2-ylcarbamic Acid 1-[2-({3-[2-(4-Hydroxybenzylamino)ethylcarbamoyl]benzoyl}methylamino)ethyl]piperidin-4-yl Ester (Form I)]
no thermal decomposition below (DSC trace) [2]: ≥ 95 °C

CN(CCN1CCC(OC(=O)Nc2ccccc2-c2ccccc2)CC1)C(=O)c1cccc(C(=O)NCCNCc2ccc(O)cc2)c1.CN(CCN1CCC(OC(=O)Nc2ccccc2-c2ccccc2)CC1)C(=O)c1cccc(C(=O)NCCNCc2ccc(O)cc2)c1.O=S(=O)(O)CCS(=O)(=O)O [crystalline hemiedisylate salt, Crystalline Hemiedisylate Salt of Biphenyl-2-ylcarbamic Acid 1-[2-({3-[2-(4-Hydroxybenzylamino)ethylcarbamoyl]benzoyl}methylamino)ethyl]piperidin-4-yl Ester]
no thermal decomposition below (DSC trace) [2]: ≥ 190 °C | level of hygroscopicity [1]: moderate and low | weight gain when exposed to up to 90% relative humidity [1]: less than 4% | deliquescence [1]: not deliquescent

CN(CCN1CCC(OC(=O)Nc2ccccc2-c2ccccc2)CC1)C(=O)c1cccc(C(=O)NCCNCc2ccc(O)cc2)c1 [crystalline freebase (Form II), Crystalline Freebase Biphenyl-2-ylcarbamic Acid 1-[2-({3-[2-(4-Hydroxybenzylamino)ethylcarbamoyl]benzoyl}methylamino)ethyl]piperidin-4-yl Ester (Form II)]
no thermal decomposition below (DSC trace) [2]: ≥ 110 °C

CN(CCN1CCC(OC(=O)Nc2ccccc2-c2ccccc2)CC1)C(=O)c1cccc(C(=O)NCCNCc2ccc(O)cc2)c1.CN(CCN1CCC(OC(=O)Nc2ccccc2-c2ccccc2)CC1)C(=O)c1cccc(C(=O)NCCNCc2ccc(O)cc2)c1.O=S(=O)(O)c1cccc2c(S(=O)(=O)O)cccc12 [crystalline heminapadisylate salt, Crystalline Heminapadisylate Salt of Biphenyl-2-ylcarbamic Acid 1-[2-({3-[2-(4-Hydroxybenzylamino)ethylcarbamoyl]benzoyl}methylamino)ethyl]piperidin-4-yl Ester]
degradation of inhalation solution after storage [3]: Less than 0.5% | chemical degradation by HPLC after storage [4]: less than 0.5% | no thermal decomposition below (DSC trace) [2]: ≥ 220 °C | weight gain in the humidity range of 40-75% RH ([1]; 40-75% RH): 0.46% | level of hygroscopicity [1]: low | weight gain when exposed to up to 90% relative humidity [1]: less than 2% | deliquescence [1]: not deliquescent
